In patent US20250230193A1, “CYCLIC COMPOUND HAVING SELECTIVE KRAS INHIBITORY EFFECT ON HRAS AND NRAS” (CHUGAI SEIYAKU KABUSHIKI KAISHA, priority 2022, published 2025):

How the values were obtained:
[1] = target: GDP-bound NRAS wild-type protein (Homo sapiens, UniProt P01111); experiment: Binding to NRAS by surface plasmon resonance (SPR), Single Cycle Kinetics; details: KD ratio, GDP-bound NRAS wild-type vs GDP-bound KRAS wild-type, SPR
[2] = target: GDP-bound HRAS wild-type protein (Homo sapiens, UniProt P01112); experiment: Binding to HRAS by surface plasmon resonance (SPR), Single Cycle Kinetics; details: KD ratio, GDP-bound HRAS wild-type vs GDP-bound KRAS wild-type, SPR
Sequence of GDP-bound HRAS wild-type protein (P01112 whole entry): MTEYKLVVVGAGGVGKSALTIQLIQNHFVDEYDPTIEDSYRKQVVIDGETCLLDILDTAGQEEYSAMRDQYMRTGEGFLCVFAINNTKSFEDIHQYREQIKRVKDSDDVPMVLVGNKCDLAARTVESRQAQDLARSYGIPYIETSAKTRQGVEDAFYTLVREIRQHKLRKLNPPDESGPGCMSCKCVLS

Sequence of GDP-bound NRAS wild-type protein (P01111 whole entry): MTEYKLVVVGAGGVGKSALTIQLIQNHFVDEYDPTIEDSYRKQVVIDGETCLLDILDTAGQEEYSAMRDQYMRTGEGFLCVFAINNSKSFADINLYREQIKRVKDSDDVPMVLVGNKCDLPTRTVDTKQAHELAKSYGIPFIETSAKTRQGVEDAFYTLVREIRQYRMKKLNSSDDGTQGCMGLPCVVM

Row | SMILES | NRAS/KRAS (ratio of KD value for NRAS to KD value for KRAS) [1] | HRAS/KRAS (ratio of KD value for HRAS to KD value for KRAS) [2]
1 | CCO[C@@H]1C[C@H]2C(=O)NC3(CC(F)(F)C3)C(=O)N(C)[C@@H](C(CC)CC)C(=O)N(C)[C@H](CC)CC(=O)N(C)[C@@H](CC3CC3)C(=O)N[C@@H]([C@@H](C)CC)C(=O)N(C)CC(=O)N(C)[C@H]3C/C=C\CCN(C3=O)[C@@H](Cc3ccc(C(F)(F)F)cc3)C(=O)N(C)CC(=O)N[C@@H](CCc3cc(F)c(C(F)(F)F)c(F)c3)C(=O)N2C1 [PP1632] | A (a compound having 10 or more and less than 20 is denoted as A) | A (a compound having 10 or more and less than 20 is denoted as A)
2 | CCO[C@@H]1C[C@H]2C(=O)NC3(CC(F)(F)C3)C(=O)N(C)[C@@H](C3CCCC3)C(=O)N(C)[C@H](CC)CC(=O)N(C)[C@@H](CC3CC3)C(=O)N[C@@H]([C@@H](C)CC)C(=O)N(C)CC(=O)N(C)[C@H]3C/C=C\CCN(C3=O)[C@@H](Cc3ccc(C(F)(F)F)cc3)C(=O)N(C)CC(=O)N[C@@H](CCc3cc(F)c(C(F)(F)F)c(F)c3)C(=O)N2C1 [PP1633] | A (a compound having 10 or more and less than 20 is denoted as A) | B (a compound having 3 or more and less than 10 is denoted as B)
3 | CCO[C@@H]1C[C@H]2C(=O)NC3(CC(C)(C)C3)C(=O)N(C)[C@@H](C(CC)CC)C(=O)N(C)[C@H](C3CCC3)CC(=O)N(C)[C@@H](CC3CC3)C(=O)N[C@@H]([C@@H](C)CC)C(=O)N(C)CC(=O)N(C)[C@H]3C/C=C\CCN(C3=O)[C@@H](Cc3ccc(C(F)(F)F)cc3)C(=O)N(C)CC(=O)N[C@@H](CCc3cc(F)c(C(F)(F)F)c(F)c3)C(=O)N2C1 [PP1634] | A (a compound having 10 or more and less than 20 is denoted as A) | A (a compound having 10 or more and less than 20 is denoted as A)
4 | CCO[C@@H]1C[C@H]2C(=O)NC3(CC(C)(C)C3)C(=O)N(C)[C@@H](C3CCCC3)C(=O)N(C)[C@H](C3CCC3)CC(=O)N(C)[C@@H](CC3CC3)C(=O)N[C@@H]([C@@H](C)CC)C(=O)N(C)CC(=O)N(C)[C@H]3C/C=C\CCN(C3=O)[C@@H](Cc3ccc(C(F)(F)F)cc3)C(=O)N(C)CC(=O)N[C@@H](CCc3cc(F)c(C(F)(F)F)c(F)c3)C(=O)N2C1 [PP1635] | B (a compound having 3 or more and less than 10 is denoted as B) | A (a compound having 10 or more and less than 20 is denoted as A)
5 | CCO[C@@H]1C[C@H]2C(=O)NC3(CCC3)C(=O)N(C)[C@@H](C(CC)CC)C(=O)N(C)[C@H](C3CCC3)CC(=O)N(C)[C@@H](CC3CC3)C(=O)N[C@@H]([C@@H](C)CC)C(=O)N(C)CC(=O)N(C)[C@H]3C/C=C\CCN(C3=O)[C@@H](Cc3ccc(C(F)(F)F)cc3)C(=O)N(C)CC(=O)N[C@@H](CCc3cc(F)c(C(F)(F)F)c(F)c3)C(=O)N2C1 [PP1636] | A (a compound having 10 or more and less than 20 is denoted as A) | A (a compound having 10 or more and less than 20 is denoted as A)
6 | CCO[C@@H]1C[C@H]2C(=O)NC3(CCC3)C(=O)N(C)[C@@H](C3CCCC3)C(=O)N(C)[C@H](C3CCC3)CC(=O)N(C)[C@@H](CC3CC3)C(=O)N[C@@H]([C@@H](C)CC)C(=O)N(C)CC(=O)N(C)[C@H]3C/C=C\CCN(C3=O)[C@@H](Cc3ccc(C(F)(F)F)cc3)C(=O)N(C)CC(=O)N[C@@H](CCc3cc(F)c(C(F)(F)F)c(F)c3)C(=O)N2C1 [PP1637] | A (a compound having 10 or more and less than 20 is denoted as A) | A (a compound having 10 or more and less than 20 is denoted as A)
7 | CCO[C@@H]1C[C@H]2C(=O)NC3(CC(F)(F)C3)C(=O)N(C)[C@@H](C3CCCC3)C(=O)N(C)[C@H](C3CCC3)CC(=O)N(C)[C@@H](CC3CC3)C(=O)N[C@@H]([C@@H](C)CC)C(=O)N(C)CC(=O)N(C)[C@H]3C/C=C\CCN(C3=O)[C@@H](Cc3ccc(C(F)(F)F)cc3)C(=O)N(C)CC(=O)N[C@@H](CCc3cc(F)c(C(F)(F)F)c(F)c3)C(=O)N2C1 [PP1639] | A (a compound having 10 or more and less than 20 is denoted as A) | A (a compound having 10 or more and less than 20 is denoted as A)
8 | CCO[C@@H]1C[C@H]2C(=O)NC3(CC(C)(C)C3)C(=O)N(C)[C@@H](C3CCCC3)C(=O)N(C)[C@H](C(=O)N(C)C)CC(=O)N(C)[C@@H](C)C(=O)N[C@@H]([C@@H](C)CC)C(=O)N(C)CC(=O)N(C)[C@H]3C/C=C\CCN(C3=O)[C@@H](Cc3ccc(C(F)(F)F)cc3)C(=O)N(C)CC(=O)N[C@@H](CCc3cc(F)c(C(F)(F)F)c(F)c3)C(=O)N2C1 [PP1641] | A (a compound having 10 or more and less than 20 is denoted as A) | A (a compound having 10 or more and less than 20 is denoted as A)
9 | CCO[C@@H]1C[C@H]2C(=O)NC3(CC(C)(C)C3)C(=O)N(C)[C@@H](C3CCCC3)C(=O)N(C)[C@H](C(=O)N(C)CC)CC(=O)N(C)[C@@H](CC(F)F)C(=O)N[C@@H]([C@@H](C)CC)C(=O)N(C)CC(=O)N(C)[C@H]3C/C=C\CCN(C3=O)[C@@H](Cc3ccc(C(F)(F)F)cc3)C(=O)N(C)CC(=O)N[C@@H](CCc3cc(F)c(C(F)(F)F)c(F)c3)C(=O)N2C1 [PP1643] | A (a compound having 10 or more and less than 20 is denoted as A) | A (a compound having 10 or more and less than 20 is denoted as A)
10 | CCO[C@@H]1C[C@H]2C(=O)NC3(CC(C)(C)C3)C(=O)N(C)[C@@H](C3CCCC3)C(=O)N(C)[C@H](C(=O)N(C)C)CC(=O)N(C)[C@@H](CC(F)(F)F)C(=O)N[C@@H]([C@@H](C)CC)C(=O)N(C)CC(=O)N(C)[C@H]3C/C=C\CCN(C3=O)[C@@H](Cc3ccc(C(F)(F)F)cc3)C(=O)N(C)CC(=O)N[C@@H](CCc3cc(F)c(C(F)(F)F)c(F)c3)C(=O)N2C1 [PP1644] | A (a compound having 10 or more and less than 20 is denoted as A) | A (a compound having 10 or more and less than 20 is denoted as A)
11 | CCC[C@H]1C(=O)N[C@@H]([C@@H](C)CC)C(=O)N(C)CC(=O)N(C)[C@H]2C/C=C\CCN(C2=O)[C@@H](Cc2ccc(C(F)(F)F)cc2)C(=O)N(C)CC(=O)N[C@@H](CCc2cc(F)c(C(F)(F)F)c(F)c2)C(=O)N2C[C@H](OCC)C[C@H]2C(=O)NC2(CC(C)(C)C2)C(=O)N(C)[C@@H](C2CCCC2)C(=O)N(C)[C@H](C(=O)N(C)C)CC(=O)N1C [PP1645] | A (a compound having 10 or more and less than 20 is denoted as A) | A (a compound having 10 or more and less than 20 is denoted as A)
12 | CCC[C@H]1C(=O)N[C@@H]([C@@H](C)CC)C(=O)N(C)CC(=O)N(C)[C@H]2C/C=C\CCN(C2=O)[C@@H](Cc2ccc(C(F)(F)F)cc2)C(=O)N(C)CC(=O)N[C@@H](CCc2cc(F)c(C(F)(F)F)c(F)c2)C(=O)N2C[C@H](OCC)C[C@H]2C(=O)NC2(CC(C)(C)C2)C(=O)N(C)[C@@H](C2CCCC2)C(=O)N(C)[C@H](C(=O)N(C)CC)CC(=O)N1C [PP1646] | A (a compound having 10 or more and less than 20 is denoted as A) | A (a compound having 10 or more and less than 20 is denoted as A)
13 | CCO[C@@H]1C[C@H]2C(=O)NC3(CC(C)(C)C3)C(=O)N(C)[C@@H](C3CCCC3)C(=O)N(C)[C@H](C(=O)N(C)CC)CC(=O)N(C)[C@@H](CC3CC3)C(=O)N[C@@H]([C@@H](C)CC)C(=O)N(C)CC(=O)N(C)[C@H]3C/C=C\CCN(C3=O)[C@@H](Cc3ccc(C(F)(F)F)cc3)C(=O)N(C)CC(=O)N[C@@H](CCc3cc(F)c(C(F)(F)F)c(F)c3)C(=O)N2C1 [PP1648] | A (a compound having 10 or more and less than 20 is denoted as A) | A (a compound having 10 or more and less than 20 is denoted as A)
14 | CCCC[C@H]1C(=O)N[C@@H]([C@@H](C)CC)C(=O)N(C)CC(=O)N(C)[C@H]2C/C=C\CCN(C2=O)[C@@H](Cc2ccc(C(F)(F)F)cc2)C(=O)N(C)CC(=O)N[C@@H](CCc2cc(F)c(C(F)(F)F)c(F)c2)C(=O)N2C[C@H](OCC)C[C@H]2C(=O)NC2(CC(C)(C)C2)C(=O)N(C)[C@@H](C2CCCC2)C(=O)N(C)[C@H](C(=O)N(C)C)CC(=O)N1C [PP1649] | A (a compound having 10 or more and less than 20 is denoted as A) | B (a compound having 3 or more and less than 10 is denoted as B)
15 | CCO[C@@H]1C[C@H]2C(=O)NC3(CC(C)(C)C3)C(=O)N(C)[C@@H](C3CCCC3)C(=O)N(C)[C@H](C(=O)N(C)C)CC(=O)N(C)[C@@H](CC(C)C)C(=O)N[C@@H]([C@@H](C)CC)C(=O)N(C)CC(=O)N(C)[C@H]3C/C=C\CCN(C3=O)[C@@H](Cc3ccc(C(F)(F)F)cc3)C(=O)N(C)CC(=O)N[C@@H](CCc3cc(F)c(C(F)(F)F)c(F)c3)C(=O)N2C1 [PP1650, (2S,8S,12R,14S,20S,23S,27S,30S,36S,38Z)-20-cyclopentyl-8-[2-[3,5-difluoro-4-(trifluoromethyl)phenyl]ethyl]-12-ethoxy-27-isobutyl-N,N,3′,3′,4,19,22,26,32,35-decamethyl-30-[(1S)-1-methylpropyl]-3,6,9,15,18,21,25,28,31,34,42-undecaoxo-2-[[4-(trifluoromethyl)phenyl]methyl]spiro[1,4,7,10,16,19,22,26,29,32,35-undecazatricyclo[34.5.1.0^10,14]dotetracont-38-ene-17,1′-cyclobutane]-23-carboxamide] | A (a compound having 10 or more and less than 20 is denoted as A) | A (a compound having 10 or more and less than 20 is denoted as A)
